Assay results: ChEMBL document CHEMBL5303304, “EUbOPEN Chemogenomics Library - IncuCyte” (2023)

Tests used:
Format in all cases: toxicity, cell-based
[1] = system: Fibroblast; assay: Incucyte cell viability with human fibroblast; conditions: 10 µM, compound concentration 10 uM
[2] = system: HEK-293T; assay: Incucyte cell viability with HEK293T; conditions: human, 10 µM, compound concentration 10 uM
[3] = system: U2OS; assay: Incucyte cell viability with U2OS; conditions: human, 10 µM, compound concentration 10 uM
Note: unitless GR value; below 1 slowed growth and below 0 cell loss.

Row | SMILES | Growth Rate ([1]; 12 h, replicate number 1) | Growth Rate ([2]; 0 h, replicate number 1) | Growth Rate ([2]; 6 h, replicate number 2) | Growth Rate ([2]; 12 h, replicate number 2) | Growth Rate ([3]; 0 h, replicate number 1) | Growth Rate ([3]; 6 h, replicate number 1) | Growth Rate ([3]; 12 h, replicate number 1) | Growth Rate ([3]; 18 h, replicate number 1) | Growth Rate ([3]; 18 h, replicate number 2) | Growth Rate ([3]; 24 h, replicate number 1) | Growth Rate ([3]; 24 h, replicate number 2) | Growth Rate ([1]; 0 h, replicate number 2) | Growth Rate ([1]; 6 h, replicate number 1) | Growth Rate ([1]; 6 h, replicate number 2) | Growth Rate ([1]; 12 h, replicate number 2) | Growth Rate ([1]; 18 h, replicate number 2) | Growth Rate ([1]; 24 h, replicate number 2) | Growth Rate ([2]; 18 h, replicate number 2) | Growth Rate ([2]; 24 h, replicate number 2) | Growth Rate ([3]; 12 h, replicate number 2) | other results
1 | COc1cc(N[C@@H]2CCCC[C@]2(O)C(F)(F)F)ccc1F [BAY-9897] | 0.82 | 0.51 | 0.88 | 0.88 | -0.16 | 0.53 | 0.68 | 0.78 | 0.96 | 0.88 | 0.77 |  |  |  |  |  |  |  |  |  | Growth Rate ([2]; 0 h, replicate number 2): 0.5
2 | O=C(Nc1ccccc1Br)N[C@@H]1CCN(c2ccc(C(F)(F)F)cn2)C1 [SB-705498] |  |  | -0.43 | -0.08 | -0.73 | 0.99 | 0.83 |  |  |  |  | 0.7 | 0.4 | -0.3 | 0.55 | 0.51 | 0.58 | 0.1 | 0.07 |  | Growth Rate ([1]; 0 h, replicate number 1): 0.33; Growth Rate ([1]; 24 h, replicate number 1): 0.34; Growth Rate ([2]; 12 h, replicate number 1): 0.76; Growth Rate ([2]; 18 h, replicate number 1): 0.32; Growth Rate ([2]; 24 h, replicate number 1): 0.31; Growth Rate ([3]; 0 h, replicate number 2): -0.91
3 | CCOC(=O)Nc1ccc2c(c1)N(C(=O)CN(CC)CC)c1ccccc1CC2 | 0.64 | 0.65 | 0.81 | 0.9 | 0.1 | 0.94 | 0.75 |  |  | 0.89 |  | 0.9 | 0.29 | 0.43 | 0.75 | 0.53 | 0.69 | 0.97 | 0.92 |  | Growth Rate ([1]; 18 h, replicate number 1): 0.61; Growth Rate ([1]; 24 h, replicate number 1): 0.76
4 | CN1CCC(F)(Cn2cnc(-c3ccc(F)cn3)c2-c2ccnc3[nH]ccc23)CC1 | 0.6 | 0.3 | 0.85 | 0.86 | 0.97 | 0.99 | 0.8 | -0.61 | 0.94 | 0.84 | 0.68 |  | -0.23 | 0.29 | 0.78 | 0.68 | 0.8 |  | 0.74 | 0.87 | Growth Rate ([1]; 18 h, replicate number 1): 0.66; Growth Rate ([1]; 24 h, replicate number 1): 0.81; Growth Rate ([2]; 0 h, replicate number 2): -0.77; Growth Rate ([2]; 6 h, replicate number 1): 0.99; Growth Rate ([2]; 18 h, replicate number 1): 0.93; Growth Rate ([2]; 24 h, replicate number 1): 0.9; Growth Rate ([3]; 6 h, replicate number 2): 0.77
5 | CN1CCc2cc(Nc3ncc(C(F)(F)F)c(NCc4cc[nH]n4)n3)ccc2C1 |  | -0.94 |  | 0.73 |  |  |  | 0.84 | 0.37 | 0.58 | 0.22 | -0.64 |  |  |  |  |  | 0.47 | 0.14 | 0.56 | Growth Rate ([1]; 0 h, replicate number 1): -0.24; Growth Rate ([2]; 18 h, replicate number 1): 0.42; Growth Rate ([2]; 24 h, replicate number 1): 0.29; Growth Rate ([3]; 6 h, replicate number 2): 0.87
6 | CCc1nc(-c2cccc(C)c2)c(-c2ccnc(NC(=O)c3ccccc3)c2)s1 [TAK-715] |  |  | 0.96 |  | -1 | 0.63 |  | -0.35 | 0.87 |  | 0.92 |  |  | 0.83 |  |  |  |  | 0.81 | 0.79 | Growth Rate ([1]; 0 h, replicate number 1): -0.56; Growth Rate ([2]; 6 h, replicate number 1): 0.48; Growth Rate ([2]; 24 h, replicate number 1): 0.92; Growth Rate ([3]; 0 h, replicate number 2): 0.2
7 | COc1ccc(CC(=O)NC(N/C(=N/C#N)Nc2cccc3ncccc23)C(C)(C)C)cc1OC (stereo not drawn) | -1 |  | 0.89 |  | 0.85 | 0.08 | 0.96 | 0.98 | 0.78 |  | 0.82 |  | -0.31 | -1 | 0.57 | 0.81 | 0.59 | 0.99 |  | 0.85 | Growth Rate ([1]; 18 h, replicate number 1): 0.6; Growth Rate ([3]; 6 h, replicate number 2): 0.31
8 | C[C@H](CCC(=O)[O-])[C@H]1CC[C@H]2[C@@H]3[C@@H](O)C[C@@H]4C[C@H](O)CC[C@]4(C)[C@H]3CC[C@]12C.[Na+] |  | 0.59 |  |  | -0.51 | 0.4 | 0.47 | 0.72 |  |  |  | 0.84 | 0.88 | 0.93 | 0.91 | 0.77 | 0.88 |  | 1 | 1 | Growth Rate ([1]; 18 h, replicate number 1): 0.83; Growth Rate ([3]; 0 h, replicate number 2): 0.8
